Series [1] relates to anti-apoptotic and pro-apoptotic Bcl-2 family proteins. As to the kind of experiment: Immunoblotting of Bcl-2 family proteins, TH-302, bortezomib and combination. The series is classed as cell-based. As for the experimental part:
To further determine the mechanism of induction of apoptosis by this combination, the effect of TH-302, bortezomib and the combination on anti-apoptotic and pro-apoptotic Bcl-2 family proteins using immunoblotting was tested.

In series [2] the test system is AML. Nature of the series: Clinical administration of TH-302 in advanced leukemia, AML patients. The series is classed as in vivo. The procedure:
(§1) Clinical investigations were conducted to determine the safety, tolerability and clinically relevant disease responses of TH-302 in patients with acute leukemias, advanced phase chronic myelogenous leukemia (CML), high risk myelodysplastic syndromes, advanced myelofibrosis or relapsed/refractory chronic lymphocytic leukemia (CLL). TH-302 was administered as a 30 to 60 minute intravenous infusion daily for 5 days followed by 2 weeks off therapy. As needed, the 5 days of dosing could be spread out over 8 days. Patients who successfully completed a 3-week treatment cycle without evidence of significant treatment-related toxicity or progressive disease were continued on treatment and could receive treatment for up to six cycles.
(§2) Twenty-one patients have been treated in the study at TH-302 daily doses ranging from 120 mg/m^2 to 460 mg/m^2. All subjects had either AML or ALL and had generally received multiple prior therapies for their disease prior to enrolling for the study.

Series [3] deals with VEGFa secretion in 5T33vt cells. Nature of the series: VEGFa secretion. The series is classed as cell-based, murine. As for the experimental part: (§3) TH-302 (5 μM) decreased the accumulation of HIF1α in hypoxic RPMI-8226 cells. VEGFa secretion was reduced by TH-302 in 5T33vt cells. *p<0.05, **p<0.01, ***p<0.001, compared to 20% O2 (n=3).
(§4) By employing a set of defined gas mixtures (0%, 1%, 1.25%, 1.5%, 2%, 3%, 20% O2) for drug treatment of the multiple myeloma cells, the oxygen concentration dependent activation of TH-302 was tested in RPMI-8226, LP-1, MMS1 and 5T33vt multiple myeloma cells. […] As the O2 concentration was reduced to 0%, the fraction of apoptotic cells increased to about 70-75%.

For series [4], the system named is ALL. Nature of the series: Clinical administration of TH-302 in advanced leukemia, ALL patients. The series is classed as in vivo. The settings on record: one ALL patient. As for the experimental part: as §1, §2
In series [5] the test system is Karpas-707, LP-1, MMS1, and RPMI-8226 cells. As to the kind of experiment: Cell cycle analysis in multiple myeloma cell lines under hypoxia. The series is classed as cell-based, human. Particulars: hypoxic conditions; Karpas-707, LP-1, MMS1, RPMI-8226 cells.
In series [6] the test system is cyclin D1/2/3, CDK4/6, p21cip-1, p27kip-1, pRb, CDK2 in RPMI-8226, LP-1, MMS1 and Karpas-707 multiple myeloma cells. Nature of the series: Western blotting of cell cycle machinery. Type of series: cell-based, human.
In series [7] the test system is 5T33vt cells. As to the kind of experiment: Cell cycle analysis in 5T33vt cells. Type of series: cell-based, murine. Particulars: hypoxia selective manner.
Series [8] concerns 5T33MMvv mouse. Nature of the series: 5T33MMvv mouse multiple myeloma model, prophylactic treatment for 3 weeks. The series is classed as in vivo. Particulars: for multiple myeloma cell apoptosis vs vehicle-treated mice: bone marrow. As for the experimental part: 5T33MMvv mice were treated prophylactically with TH-302 for 3 weeks. From day 1, the following were observed. […] Therefore, the cancer cytotoxic effect of TH-302 was associated with the hypoxic nature of multiple myeloma cells in the bone marrow.

The test system of series [9] is human and murine multiple myeloma cells. As to the kind of experiment: Flow cytometry analysis of apoptosis / toxicity in multiple myeloma cells. Type of series: cell-based. The settings on record: also RPMI-8226, 5T33vt, MMS1, Karpas-707 cells. As for the experimental part: as §4
The test system of series [10] is naive mice. Nature of the series: Toxicity in TH-302 treated naive mice. Particulars: compared to vehicle-treated naive mice. Type of series: in vivo, mouse.
Series [11] concerns RPMI-8226, LP-1, MMS1 and 5T33vt multiple myeloma cells. As to the kind of experiment: Oxygen concentration dependent activation of TH-302 (defined gas mixtures). The series is classed as cell-based, human and murine. As for the experimental part:
as §4

The test system of series [12] is HIF1α in RPMI-8226 cells. As to the kind of experiment: HIF1α accumulation/expression in hypoxic cells. Type of series: cell-based, human. The procedure:
as §3, §4

Series [13] relates to BCL-2, BCL-xL, cleaved caspase-3, 8, 9 and PARP. Nature of the series: Western blotting of apoptosis proteins. The series is classed as cell-based.
For series [14], the system named is LP-1 cells. As to the kind of experiment: Apoptosis in LP-1 cells. Type of series: cell-based, human. As for the experimental part: as §3, §4

Entries after “also recorded” stand apart in the source; their conditions may differ.

For the compound `CC(C)C[C@H](NC(=O)[C@H](Cc1ccccc1)NC(=O)c1cnccn1)B(O)O` [bortezomib, reference compound], in series [1], the “anti-apoptotic Mcl-1” value was “accumulated”; the “expression of anti-apoptotic Bcl-2 and Bcl-xL” value is given as “decreased”; the “pro-apoptotic BH-3 member Noxa and cleavage of BID” value was “induced”.
Take `Cn1c(COP(=O)(NCCBr)NCCBr)cnc1[N+](=O)[O-]` [TH-302]: in series [2] (one AML patient started at 120 mg/m^2/day), the platelet count entry was “gradually improving”. The peripheral blast count result in series [2] (one AML patient started at 120 mg/m^2/day, after each cycle) was “decreased”. Moreover, the disease response entry in [2] (one AML patient, 240 mg/m^2/day, after cycle 1) is “stable disease”; in series [2] (two AML patients, 120 mg/m^2/day, iv daily for 5 days of 21 day cycle), “stable disease”; in series [4] (170 mg/m^2/day, bone marrow biopsy after cycle 1), “partial response”; in [4] (240 mg/m^2/day, after cycle 1), “stable disease”; in series [4] (330 mg/m^2/day, after cycle 1) it was “stable disease”. Further, the VEGFa secretion entry in series [3] was “reduced; also recorded: significantly decreased”. Moreover, the cell cycle arrest entry in series [5] and in series [7] was “induced Go/G1 cell cycle arrest” throughout. Besides, in series [6], the CDK2 expression result is given as “remained undisturbed”. Besides, the “cyclin D1/2/3, CDK4/6, p21, p27 and pRb expression” value in series [6] was “down-regulating”. Besides, the “microvessel density (MVD) in the bone marrow vs vehicle-treated mice” value in series [8] (12.5 mg/kg) stood at 19 % decrease; in series [8] (25 mg/kg) it was 20 % decrease; in series [8] (50 mg/kg) it was 26 % decrease. Moreover, the “paraprotein secretion vs vehicle-treated mice” value in series [8] (12.5 mg/kg) was determined as 32 % decrease; in series [8] (25 mg/kg) it was 77 % decrease; in series [8] (50 mg/kg) it was 54 % decrease. Also, the “multiple myeloma cell apoptosis vs vehicle-treated mice” value in series [8] (12.5 mg/kg) is listed as 2.5 fold; in [8] (25 mg/kg), 2.1 fold; in series [8] (50 mg/kg), 3.1 fold. In addition, the apoptosis entry is “induced dose-dependent apoptosis” in series [9] (hypoxic conditions, flow cytometry); “triggered specific apoptosis in a dose-dependent manner” in [14] (LP-1 cells under hypoxia, dose dependence); “induced apoptosis” in series [14] (LP-1 cells, TH-302 5 μM). Further, in [9] (normoxic conditions, even at high concentrations), the “toxicity in normoxic conditions” value was “very low toxicity”. For the same compound, the “toxicity in terms of body weight, HGB, RBC, WBC, HCT and MVD” value in [10] is “no substantial toxicity”. Also, the “fraction of apoptotic cells” value in series [11] (O2 concentration reduced to 0%) is listed as 70-75%. The “threshold of activating TH-302” value in series [11] (gas mixtures 0%, 1%, 1.25%, 1.5%, 2%, 3%, 20% O2) is less than 1.5 % O2. Moreover, the “anti-apoptotic Mcl-1” value in series [1] was “decreased”. For the same compound, in series [1], the “expression of anti-apoptotic Bcl-2 and Bcl-xL” value was “decreased”. Besides, the “pro-apoptotic BH-3 member Noxa and cleavage of BID” value in [1] is on record as “induced”. Also, the “accumulation of HIF1α” value in series [12] (hypoxic RPMI-8226 cells, TH-302 5 μM) was “decreased”. Also, the “expression of HIF1α” value in series [12] (hypoxic condition, similar in 5T33vt, LP-1, Karpas-707 cells) was “reduced”. In addition, the “anti-apoptotic proteins BCL-2 and BCL-xL” value in series [13] is listed as “down-regulation”. Further, the “expression of cleaved proapoptotic protein caspase-3, 8, 9 and PARP” value in series [13] was “up-regulation”.

The values above are taken from US20130296273A1, “TREATMENT OF BLOOD CANCER” (Threshold Pharmaceuticals, Inc., priority 2010, published 2013).
